# Results as given in patent US9573895B2, “Tetracycline compounds” (Tetraphase Pharmaceuticals, Inc., priority 2012, dated 2017).
# Where two headings read alike, the source gives them in different places.
# Columns and labels:
# Type in all cases: cell-based
# [1] = tested on: Pseudomonas aeruginosa PA555 (ATCC BAA-47, wild type strain PAO1); assay: MIC assay PA555
# [2] = tested on: Streptococcus pneumoniae SP106 (ATCC 49619); assay: MIC assay SP106; settings: Table 5
# [3] = tested on: Proteus mirabilis PM385 (Urine ESBL+ isolate); assay: MIC assay PM385
# [4] = tested on: Acinetobacter baumannii AB250 (Cystic fibrosis isolate, MDR); assay: MIC assay AB250
# [5] = tested on: Klebsiella pneumoniae KP153 (Tetracycline-resistant, tet(A), MDR, ESBL+); assay: MIC assay KP153; settings: Table 5
# [6] = tested on: Pseudomonas aeruginosa PA556 (Multiple-Mex efflux pump knockout strain)
# [7] = tested on: Klebsiella pneumoniae KP457 (2009 ESBL+, CTX-M, OXA); assay: MIC assay KP457
# [8] = tested on: Escherichia coli EC155 (Tetracycline-resistant, tet(A))
# KP194 7E+05 = assay: MIC assay KP194; settings: Table 5
# Description: The assays were run as follows.
# [9] = tested on: Stenotrophomonas maltophilia SM256 (Cystic fibrosis isolate, MDR); assay: MIC assay SM256
# [10] = tested on: Escherichia coli EC107 (ATCC 25922); assay: MIC assay EC107
# [11] = tested on: Staphylococcus aureus SA161 (HA-MRSA, tetracycline-resistant, tet(M)); assay: MIC assay SA161
# [12] = tested on: Enterobacter cloacae EC603 (Urine isolate (Spain)); assay: MIC assay EC603
# [13] = tested on: Enterococcus faecalis EF159 (Tetracycline-resistant, tet(M)); assay: MIC assay EF159; settings: Table 5
# [14] = tested on: Enterococcus faecium EF404 (Blood isolate (US) tet(M)); assay: MIC assay EF404
# [15] = tested on: Burkholderia cenocepacia BC240 (Cystic fibrosis isolate, MDR); assay: MIC assay BC240
# [16] = tested on: Streptococcus pneumoniae SP160 (Tetracycline-resistant, tet(M)); assay: MIC assay SP160
# [17] = tested on: Enterococcus faecalis EF327 (Wound isolate (US) tet(M)); assay: MIC assay EF327
# [18] = tested on: Pseudomonas aeruginosa PA1145 (Strain used in murine pneumonia model); assay: MIC assay PA1145; settings: control compounds, numeric
smiles,measurement,setting,value
"CN(C)[C@@H]1C(O)=C(C(N)=O)C(=O)[C@@]2(O)C(O)=C3C(=O)c4c(O)cccc4C[C@H]3C[C@@H]12 [Sancycline, sancycline]",MIC PA555 BAA-47,[1]; Table 7,32 µg/mL
same,MIC PA555 BAA-47,"[1]; control compounds, numeric",32 µg/mL
same,MIC SP106 49619,[2],0.25 µg/mL
same,MIC PM385,[3]; Table 7,8 µg/mL
same,MIC PM385,"[3]; control compounds, numeric",8 µg/mL
same,MIC AB250,[4]; Table 5,16 µg/mL
same,MIC AB250,[4]; Table 6,16 µg/mL
same,MIC AB250,[4]; Table 7,16 µg/mL
same,MIC KP153 tetA,[5],32 µg/mL
same,MIC PA556,[6]; Table 5,1 µg/mL
same,MIC PA556,[6]; Table 6,1 µg/mL
same,MIC PA556,[6]; Table 7,1 µg/mL
same,MIC,"[7]; Klebsiella pneumoniae, read-out: MIC KP457 CTX-M-15",8 µg/mL
same,MIC KP457 CTX-M-15,[7]; Table 6,8 µg/mL
same,MIC KP457 CTX-M-15,[7]; Table 7,8 µg/mL
same,MIC EC155 tetA,[8]; Table 5,32 µg/mL
same,MIC EC155 tetA,[8]; Table 6,32 µg/mL
same,MIC EC155 tetA,[8]; Table 7,32 µg/mL
same,MIC EC155 tetA,"[8]; control compounds, numeric",32 µg/mL
same,MIC,KP194 7E+05,32 µg/mL
same,MIC SM256,[9]; Table 5,1 µg/mL
same,MIC SM256,[9]; Table 6,1 µg/mL
same,MIC SM256,[9]; Table 7,1 µg/mL
"CN(C)c1ccc(O)c2c1C[C@H]1C[C@H]3[C@H](N(C)C)C(O)=C(C(N)=O)C(=O)[C@@]3(O)C(O)=C1C2=O [Minocycline, minocycline]",MIC PA555 BAA-47,"[1]; control compounds, numeric",16 µg/mL
same,MIC EC107 25922,[10]; Table 5,0.5 µg/mL
same,MIC EC107 25922,"[10]; control compounds, numeric",0.5 µg/mL
same,MIC SP106 49619,[2],0.015 µg/mL
same,MIC PM385,[3]; Table 7,16 µg/mL
same,MIC PM385,"[3]; control compounds, numeric",16 µg/mL
same,MIC SA161 tetM,[11]; Table 5,8 µg/mL
same,MIC SA161 tetM,[11]; Table 6,8 µg/mL
same,MIC SA161 tetM,[11]; Table 7,8 µg/mL
same,MIC SA161 tetM,"[11]; control compounds, numeric",8 µg/mL
same,MIC AB250,[4]; Table 5,8 µg/mL
same,MIC AB250,[4]; Table 6,8 µg/mL
same,MIC AB250,[4]; Table 7,8 µg/mL
same,MIC EC603 tetA,[12]; Table 6,33 µg/mL
same,MIC EC603 tetA,[12]; Table 7,33 µg/mL
same,MIC EF159 tetM,[13],16 µg/mL
same,MIC KP153 tetA,[5],8 µg/mL
same,MIC KP457 CTX-M-15,[7]; Table 6,8 µg/mL
same,MIC KP457 CTX-M-15,[7]; Table 7,8 µg/mL
same,MIC KP457 CTX-M-15,"[7]; control compounds, numeric",8 µg/mL
same,MIC EF404 tetM,[14]; Table 7,8 µg/mL
same,MIC EF404 tetM,"[14]; control compounds, numeric",8 µg/mL
same,MIC EC155 tetA,[8]; Table 5,8 µg/mL
same,MIC EC155 tetA,[8]; Table 6,8 µg/mL
same,MIC,KP194 7E+05,32 µg/mL
same,MIC BC240,[15]; Table 5,8 µg/mL
same,MIC BC240,[15]; Table 6,8 µg/mL
same,MIC BC240,[15]; Table 7,8 µg/mL
same,MIC SM256,[9]; Table 5,0.5 µg/mL
same,MIC SM256,[9]; Table 6,0.5 µg/mL
same,MIC SM256,[9]; Table 7,0.5 µg/mL
same,MIC SP160 tetM,[16]; Table 4,2 µg/mL
same,MIC SP160 tetM,[16]; Table 5,2 µg/mL
same,MIC SP160 tetM,[16]; Table 7,2 µg/mL
same,MIC SP160 tetM,"[16]; control compounds, numeric",2 µg/mL
same,MIC EF327 tetM,[17]; Table 7,32 µg/mL
same,MIC EF327 tetM,"[17]; control compounds, numeric",32 µg/mL
"CN(C)c1cc(NC(=O)CNC(C)(C)C)c(O)c2c1C[C@H]1C[C@H]3[C@H](N(C)C)C(O)=C(C(N)=O)C(=O)[C@@]3(O)C(O)=C1C2=O [Tigecycline, tigecycline]",MIC PA555 BAA-47,[1]; Table 7,16 µg/mL
same,MIC PA555 BAA-47,"[1]; control compounds, numeric",16 µg/mL
same,MIC SP106 49619,[2],0.016 µg/mL
same,MIC PM385,[3]; Table 7,4 µg/mL
same,MIC PM385,"[3]; control compounds, numeric",4 µg/mL
same,MIC PA1145 Vivisource,[18],16 µg/mL
same,MIC AB250,[4]; Table 5,8 µg/mL
same,MIC AB250,[4]; Table 6,8 µg/mL
same,MIC AB250,[4]; Table 7,8 µg/mL
same,MIC KP153 tetA,[5],1 µg/mL
same,MIC PA556,[6]; Table 5,0.25 µg/mL
same,MIC PA556,[6]; Table 6,0.25 µg/mL
same,MIC PA556,[6]; Table 7,0.25 µg/mL
same,MIC KP457 CTX-M-15,[7]; Table 6,1 µg/mL
same,MIC KP457 CTX-M-15,[7]; Table 7,1 µg/mL
same,MIC KP457 CTX-M-15,"[7]; control compounds, numeric",1 µg/mL
same,MIC EC155 tetA,[8]; Table 5,0.5 µg/mL
same,MIC EC155 tetA,[8]; Table 6,0.5 µg/mL
same,MIC EC155 tetA,[8]; Table 7,0.5 µg/mL
same,MIC EC155 tetA,"[8]; control compounds, numeric",0.5 µg/mL
same,MIC,KP194 7E+05,8 µg/mL
same,MIC SM256,[9]; Table 5,1 µg/mL
same,MIC SM256,[9]; Table 6,1 µg/mL
same,MIC SM256,[9]; Table 7,1 µg/mL
